Literature values in patent US9480645B2, “Omega-3 oil containing ophthalmic emulsions” (Abbott Medical Optics Inc., priority 2009, dated 2016).

conditions: generally as reported by the manufacturer of the commercial product

Which HLB does the source give for Sorbitan monooleate here?
The HLB was 4.3.

For Sorbitan monopalmitate, which HLB is on record?
Its HLB is 6.7.

With Sorbitan monostearate as the substance, how does the HLB read?
Its HLB is 4.7.
